Assay results as given in the supplement of paper PMC10307832.

Columns and labels:
Experiment in all cases: relative viability (nuclei count vs DMSO), 5 days (fraction); higher = more cells survive
EHT 1864 = compound: C1COCCN1CC2=CC(=O)C(=CO2)OCCCCCSC3=C4C=CC(=CC4=NC=C3)C(F)(F)F [EHT 1864]
Summary of the method: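 Viability here means nuclei in treated wells divided by nuclei in vehicle wells, reported as the median across plates. Only plates with control CV below 25% and at least one doubling passed. Lung cancer cell lines in 1536-well plates were exposed to five √10-spaced library-drug doses for 5 days and counted from 4× Hoechst images in MetaXpress.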

EHT 1864 + Pictilisib = compound: C1COCCN1CC2=CC(=O)C(=CO2)OCCCCCSC3=C4C=CC(=CC4=NC=C3)C(F)(F)F [EHT 1864] + CS(=O)(=O)N1CCN(Cc2cc3nc(-c4cccc5[nH]ncc45)nc(N4CCOCC4)c3s2)CC1 [Pictilisib] (partner 1 µM)
Summary of the method: (§1)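 Nuclei were stained with Hoechst during a one-step fixation (final 0.05% Triton X-100, 1% formaldehyde, 1 ug/ml Hoechst) carried out 5 days after dosing, then counted on 4× images. The cells, lung cancer lines in 1536-well plates, had been dosed by pin tool the day after seeding with one drug alone or a fixed anchor-drug dose plus five library-drug doses (not always all listed) in √10 steps. Relative viability is the nuclei count in treated wells divided by that in vehicle wells, and each value is the median of duplicate plates.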

EHT 1864 + Navitoclax = compound: C1COCCN1CC2=CC(=O)C(=CO2)OCCCCCSC3=C4C=CC(=CC4=NC=C3)C(F)(F)F [EHT 1864] + CC1(C)CCC(c2ccc(Cl)cc2)=C(CN2CCN(c3ccc(C(=O)NS(=O)(=O)c4ccc(N[C@H](CCN5CCOCC5)CSc5ccccc5)c(S(=O)(=O)C(F)(F)F)c4)cc3)CC2)C1 [Navitoclax] (partner 0.5 µM)
Summary of the method: as §1

EHT 1864 + Lapatinib = compound: C1COCCN1CC2=CC(=O)C(=CO2)OCCCCCSC3=C4C=CC(=CC4=NC=C3)C(F)(F)F [EHT 1864] + CS(=O)(=O)CCNCc1ccc(-c2ccc3ncnc(Nc4ccc(OCc5cccc(F)c5)c(Cl)c4)c3c2)o1 [Lapatinib] (partner 2 µM)
Summary of the method: as §1

EHT 1864 + Phenformin = compound: C1COCCN1CC2=CC(=O)C(=CO2)OCCCCCSC3=C4C=CC(=CC4=NC=C3)C(F)(F)F [EHT 1864] + N=C(N)NC(=N)NCCc1ccccc1 [Phenformin] (partner 250 µM)
Summary of the method: as §1

EHT 1864 + Foretinib = compound: C1COCCN1CC2=CC(=O)C(=CO2)OCCCCCSC3=C4C=CC(=CC4=NC=C3)C(F)(F)F [EHT 1864] + COc1cc2c(Oc3ccc(NC(=O)C4(C(=O)Nc5ccc(F)cc5)CC4)cc3F)ccnc2cc1OCCCN1CCOCC1 [Foretinib] (partner 0.25 µM)
Summary of the method: as §1

EHT 1864 + Olaparib = compound: C1COCCN1CC2=CC(=O)C(=CO2)OCCCCCSC3=C4C=CC(=CC4=NC=C3)C(F)(F)F [EHT 1864] + O=C(c1cc(Cc2n[nH]c(=O)c3ccccc23)ccc1F)N1CCN(C(=O)C2CC2)CC1 [Olaparib] (partner 8 µM)
Summary of the method: as §1

EHT 1864 + Linsitinib = compound: C1COCCN1CC2=CC(=O)C(=CO2)OCCCCCSC3=C4C=CC(=CC4=NC=C3)C(F)(F)F [EHT 1864] + C[C@]1(O)C[C@@H](c2nc(-c3ccc4ccc(-c5ccccc5)nc4c3)c3c(N)nccn32)C1 [Linsitinib] (partner 1 µM)
Summary of the method: as §1

EHT 1864 + Alpelisib = compound: C1COCCN1CC2=CC(=O)C(=CO2)OCCCCCSC3=C4C=CC(=CC4=NC=C3)C(F)(F)F [EHT 1864] + Cc1nc(NC(=O)N2CCC[C@H]2C(N)=O)sc1-c1ccnc(C(C)(C)C(F)(F)F)c1 [Alpelisib] (partner 2 µM)
Summary of the method: as §1

EHT 1864 + Crizotinib = compound: C1COCCN1CC2=CC(=O)C(=CO2)OCCCCCSC3=C4C=CC(=CC4=NC=C3)C(F)(F)F [EHT 1864] + C[C@@H](Oc1cc(-c2cnn(C3CCNCC3)c2)cnc1N)c1c(Cl)ccc(F)c1Cl [Crizotinib] (partner 1 µM)
Summary of the method: as §1

EHT 1864 + Decitabine = compound: C1COCCN1CC2=CC(=O)C(=CO2)OCCCCCSC3=C4C=CC(=CC4=NC=C3)C(F)(F)F [EHT 1864] + Nc1ncn([C@H]2C[C@H](O)[C@@H](CO)O2)c(=O)n1 [Decitabine] (partner 2 µM)
Summary of the method: as §1

EHT 1864 + Dasatinib = compound: C1COCCN1CC2=CC(=O)C(=CO2)OCCCCCSC3=C4C=CC(=CC4=NC=C3)C(F)(F)F [EHT 1864] + Cc1nc(Nc2ncc(C(=O)Nc3c(C)cccc3Cl)s2)cc(N2CCN(CCO)CC2)n1 [Dasatinib] (partner 0.075 µM)
Summary of the method: as §1

EHT 1864 + Luminespib = compound: C1COCCN1CC2=CC(=O)C(=CO2)OCCCCCSC3=C4C=CC(=CC4=NC=C3)C(F)(F)F [EHT 1864] + CCNC(=O)c1noc(-c2cc(C(C)C)c(O)cc2O)c1-c1ccc(CN2CCOCC2)cc1 [Luminespib] (partner 0.01 µM)
Summary of the method: as §1

EHT 1864 + Tozasertib = compound: C1COCCN1CC2=CC(=O)C(=CO2)OCCCCCSC3=C4C=CC(=CC4=NC=C3)C(F)(F)F [EHT 1864] + Cc1cc(Nc2cc(N3CCN(C)CC3)nc(Sc3ccc(NC(=O)C4CC4)cc3)n2)n[nH]1 [Tozasertib] (partner 0.1 µM)
Summary of the method: as §1

EHT 1864 + OSI-027 = compound: C1COCCN1CC2=CC(=O)C(=CO2)OCCCCCSC3=C4C=CC(=CC4=NC=C3)C(F)(F)F [EHT 1864] + COc1cccc2cc(-c3nc([C@H]4CC[C@H](C(=O)O)CC4)n4ncnc(N)c34)[nH]c12 [OSI-027] (partner 0.5 µM)
Summary of the method: as §1

Cell Line: A549
- relative viability (EHT 1864; 0.04 µM): 0.88
- relative viability (EHT 1864; 0.1265 µM): 0.937
- relative viability (EHT 1864; 0.4 µM): 0.921
- relative viability (EHT 1864; 1.265 µM): 0.948
- relative viability (EHT 1864; 4 µM): 0.883
- relative viability (EHT 1864 + Pictilisib; first compound 0.1265 µM): 0.524
- relative viability (EHT 1864 + Pictilisib; first compound 0.4 µM): 0.416
- relative viability (EHT 1864 + Pictilisib; first compound 1.265 µM): 0.411
- relative viability (EHT 1864 + Pictilisib; first compound 4 µM): 0.461
- relative viability (EHT 1864 + Navitoclax; first compound 0.04 µM): 1.16
- relative viability (EHT 1864 + Navitoclax; first compound 0.1265 µM): 1.2
- relative viability (EHT 1864 + Navitoclax; first compound 0.4 µM): 0.952
- relative viability (EHT 1864 + Navitoclax; first compound 1.265 µM): 1.18
- relative viability (EHT 1864 + Navitoclax; first compound 4 µM): 0.912
- relative viability (EHT 1864 + Lapatinib; first compound 0.04 µM): 0.927
- relative viability (EHT 1864 + Lapatinib; first compound 0.1265 µM): 0.894
- relative viability (EHT 1864 + Lapatinib; first compound 0.4 µM): 0.996
- relative viability (EHT 1864 + Lapatinib; first compound 1.265 µM): 0.914
- relative viability (EHT 1864 + Lapatinib; first compound 4 µM): 0.625
- relative viability (EHT 1864 + Phenformin; first compound 0.04 µM): 0.267
- relative viability (EHT 1864 + Phenformin; first compound 0.1265 µM): 0.14
- relative viability (EHT 1864 + Phenformin; first compound 0.4 µM): 0.186
- relative viability (EHT 1864 + Phenformin; first compound 1.265 µM): 0.0995
- relative viability (EHT 1864 + Phenformin; first compound 4 µM): 0.168
- relative viability (EHT 1864 + Foretinib; first compound 0.04 µM): 0.995
- relative viability (EHT 1864 + Foretinib; first compound 0.1265 µM): 0.986
- relative viability (EHT 1864 + Foretinib; first compound 0.4 µM): 0.978
- relative viability (EHT 1864 + Foretinib; first compound 1.265 µM): 0.815
- relative viability (EHT 1864 + Foretinib; first compound 4 µM): 0.714
- relative viability (EHT 1864 + Olaparib; first compound 0.04 µM): 0.302
- relative viability (EHT 1864 + Olaparib; first compound 0.1265 µM): 0.299
- relative viability (EHT 1864 + Olaparib; first compound 0.4 µM): 0.368
- relative viability (EHT 1864 + Olaparib; first compound 1.265 µM): 0.246
- relative viability (EHT 1864 + Olaparib; first compound 4 µM): 0.428
- relative viability (EHT 1864 + Linsitinib; first compound 0.04 µM): 0.598
- relative viability (EHT 1864 + Linsitinib; first compound 0.1265 µM): 0.658
- relative viability (EHT 1864 + Linsitinib; first compound 0.4 µM): 0.641
- relative viability (EHT 1864 + Linsitinib; first compound 1.265 µM): 0.599
- relative viability (EHT 1864 + Linsitinib; first compound 4 µM): 0.639
- relative viability (EHT 1864 + Alpelisib; first compound 0.04 µM): 0.637
- relative viability (EHT 1864 + Alpelisib; first compound 0.1265 µM): 0.735
- relative viability (EHT 1864 + Alpelisib; first compound 0.4 µM): 0.694
- relative viability (EHT 1864 + Alpelisib; first compound 1.265 µM): 0.805
- relative viability (EHT 1864 + Alpelisib; first compound 4 µM): 0.712
- relative viability (EHT 1864 + Crizotinib; first compound 0.04 µM): 0.659
- relative viability (EHT 1864 + Crizotinib; first compound 0.1265 µM): 0.739
- relative viability (EHT 1864 + Crizotinib; first compound 0.4 µM): 0.742
- relative viability (EHT 1864 + Crizotinib; first compound 1.265 µM): 0.669
- relative viability (EHT 1864 + Crizotinib; first compound 4 µM): 0.601
- relative viability (EHT 1864 + Decitabine; first compound 0.04 µM): 0.263
- relative viability (EHT 1864 + Decitabine; first compound 0.1265 µM): 0.213
- relative viability (EHT 1864 + Decitabine; first compound 0.4 µM): 0.257
- relative viability (EHT 1864 + Decitabine; first compound 1.265 µM): 0.284
- relative viability (EHT 1864 + Decitabine; first compound 4 µM): 0.323

Cell Line: NCI-H1623
- relative viability (EHT 1864; 0.04 µM): 0.995
- relative viability (EHT 1864; 0.1265 µM): 0.972
- relative viability (EHT 1864; 0.4 µM): 1.02
- relative viability (EHT 1864; 1.265 µM): 0.921
- relative viability (EHT 1864; 4 µM): 1.14
- relative viability (EHT 1864 + Dasatinib; first compound 0.04 µM): 0.641
- relative viability (EHT 1864 + Dasatinib; first compound 0.1265 µM): 0.676
- relative viability (EHT 1864 + Dasatinib; first compound 0.4 µM): 0.514
- relative viability (EHT 1864 + Dasatinib; first compound 1.265 µM): 0.583
- relative viability (EHT 1864 + Dasatinib; first compound 4 µM): 0.477
- relative viability (EHT 1864 + Phenformin; first compound 0.04 µM): 0.617
- relative viability (EHT 1864 + Phenformin; first compound 0.1265 µM): 0.665
- relative viability (EHT 1864 + Phenformin; first compound 0.4 µM): 0.576
- relative viability (EHT 1864 + Phenformin; first compound 1.265 µM): 0.617
- relative viability (EHT 1864 + Phenformin; first compound 4 µM): 0.539
- relative viability (EHT 1864 + Foretinib; first compound 0.04 µM): 0.937
- relative viability (EHT 1864 + Foretinib; first compound 0.1265 µM): 0.869
- relative viability (EHT 1864 + Foretinib; first compound 0.4 µM): 0.855
- relative viability (EHT 1864 + Foretinib; first compound 1.265 µM): 0.959
- relative viability (EHT 1864 + Foretinib; first compound 4 µM): 0.959
- relative viability (EHT 1864 + Luminespib; first compound 0.04 µM): 0.584
- relative viability (EHT 1864 + Luminespib; first compound 0.1265 µM): 0.522
- relative viability (EHT 1864 + Luminespib; first compound 0.4 µM): 0.445
- relative viability (EHT 1864 + Luminespib; first compound 1.265 µM): 0.581
- relative viability (EHT 1864 + Luminespib; first compound 4 µM): 0.384
- relative viability (EHT 1864 + Tozasertib; first compound 0.04 µM): 0.418
- relative viability (EHT 1864 + Tozasertib; first compound 0.1265 µM): 0.394
- relative viability (EHT 1864 + Tozasertib; first compound 0.4 µM): 0.445
- relative viability (EHT 1864 + Tozasertib; first compound 1.265 µM): 0.458
- relative viability (EHT 1864 + Tozasertib; first compound 4 µM): 0.399
- relative viability (EHT 1864 + OSI-027; first compound 0.04 µM): 0.439
- relative viability (EHT 1864 + OSI-027; first compound 0.1265 µM): 0.433
- relative viability (EHT 1864 + OSI-027; first compound 0.4 µM): 0.474
- relative viability (EHT 1864 + OSI-027; first compound 1.265 µM): 0.475
- relative viability (EHT 1864 + OSI-027; first compound 4 µM): 0.432
